Measurements as given in patent US10562912B2 (C&C Research Laboratories, priority 2013, dated 2020).

Columns and labels:
Format in all cases: cell-based
DU-145 = test: Cell growth inhibition assay, prostate cancer cell line DU-145; conditions: Homo sapiens, DU-145 prostate cancer cell line
How it was run: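 Readout was CellTiter-Glo luminescence after 72–96 h of compound exposure at 37 °C, 5% CO2. Plating density was 3,000 cells/well for DU-145 and HCT116 and 5,000 cells/well for SW626. Controls were 0.1% DMSO wells and medium-only wells.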

STAT3 = target: T1, STAT3 (Homo sapiens, UniProt P40763); test: STAT3 reporter gene assay (luciferase), LNCaP stable cell line (pSTAT3-TA-luc), IL-6 stimulation
T1 construct: plasmid pSTAT3-TA-luc), which contains a stably operating STAT3 promoter; endogenous in cells
How it was run: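 Cytotoxicity was run on a duplicate plate with CellTiter-Glo, while the other plate gave luciferase read-outs from lysed LNCaP pSTAT3-TA-luc reporter cells. Cells were treated with graded compound concentrations plus IL-6 (10 ng/mL final) for 24–48 h in 3% DCC-FBS medium. Unstimulated and stimulated wells served as negative and positive controls.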

LNCaP = test: Cell growth inhibition assay, prostate cancer cell line LNCaP (medium with 10 ng/mL IL-6); conditions: Homo sapiens, medium supplemented with 10 ng/mL of IL-6, 10,000 cells/well
U266 = test: Cell growth inhibition assay, blood cancer cell line U266; conditions: Homo sapiens, U-266 blood cancer cell line
Description: The inhibitory effects of the compounds of the present invention against the growth of cancer cells were evaluated as shown below. The cancer cell lines including stomach cancer cell line (AGS), breast cancer cell lines (MDA-MB-231, MDA-MB-468, and BT-549), prostate cancer cell lines (LNCaP and DU-145), colon cancer cell line (HCT116), ovarian cancer cell line (SW626), liver cancer cell line (Hep3B), kidney cancer cell line (ACHN), lung cancer cell line (NCI-H23) and blood cancer cell lines (HEL92.1.7 and U266) were cultured under the protocol provided by each supplier. A medium supplemented with 10 ng/mL of IL-6 was used for LNCaP, a prostate cancer cell line, when treated with a drug. Each type of cells to be used in experiments were sub-cultured in a 96-well plate by counting the exact number of cells using Tali™ Image-based Cytometer (Life Technologies). In a 96-well plate, AGS, HCT116, and DU-145 were employed with 3,000 cells/well; NCI-H23, SW626, Hep3B, ACHN, BT-549, MDA-MB-231, HEL92.1.7, and U266 were employed with 5,000 cells/well; and LNCaP and MDA-MB-468 were employed with 10,000 cells/well. The cells were treated with the compounds listed in Examples which were diluted in various concentrations. Upon completion of the compounds treatment, AGS, HCT116, SW626, DU145, NCI-H23, Hep3B, ACHN, BT-549, LNCaP, HEL92.1.7, and U266 cells were cultured at 37° C. under 5% CO2 for from 72 to 96 hours, and MDA-MB-231 and MDA-MB-468 cells were cultured at 37° C. in air for from 72 to 96 hours. Subsequently, the cells were observed under microscope and drug precipitation and particular findings were investigated and recorded. And then, the 96-well plate was placed at room temperature for 30 minutes, added with 20 μL/well of CellTiter-Glo solution (Cat No. G7573, Promega) and shaken for 10 minutes, followed by being subjected to the measurement using PHERAstar™ microplate reader (BMG LABTECH) according to the supplier's general luminometer protocol. Wells where only culture liquid added without cell plating were used as a negative control, whereas wells where culture liquid containing 0.1% DMSO instead of the compounds listed in Examples were used as a positive control.

HEL92.1.7 = test: Cell growth inhibition assay, blood cancer cell line HEL92.1.7; conditions: Homo sapiens, HEL 92.1.7, HEL92.1.7 blood cancer cell line
How it was run: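 Cells were seeded at 3,000/well (HCT116, DU-145) or 5,000/well (SW626 and the others) and exposed to serial compound dilutions for 72 to 96 h at 37 °C under 5% CO2. Viability was read as CellTiter-Glo luminescence against 0.1% DMSO and cell-free wells.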

MDA-MB-231 = test: Cell growth inhibition assay, breast cancer cell line MDA-MB-231; conditions: Homo sapiens; MDA-MB-231 breast cancer cell line, 5,000 cells/well
AGS = test: Cell growth inhibition assay, stomach cancer cell line AGS; conditions: Homo sapiens; AGS stomach cancer cell line, 3,000 cells/well

T1 sequence (P40763 whole entry): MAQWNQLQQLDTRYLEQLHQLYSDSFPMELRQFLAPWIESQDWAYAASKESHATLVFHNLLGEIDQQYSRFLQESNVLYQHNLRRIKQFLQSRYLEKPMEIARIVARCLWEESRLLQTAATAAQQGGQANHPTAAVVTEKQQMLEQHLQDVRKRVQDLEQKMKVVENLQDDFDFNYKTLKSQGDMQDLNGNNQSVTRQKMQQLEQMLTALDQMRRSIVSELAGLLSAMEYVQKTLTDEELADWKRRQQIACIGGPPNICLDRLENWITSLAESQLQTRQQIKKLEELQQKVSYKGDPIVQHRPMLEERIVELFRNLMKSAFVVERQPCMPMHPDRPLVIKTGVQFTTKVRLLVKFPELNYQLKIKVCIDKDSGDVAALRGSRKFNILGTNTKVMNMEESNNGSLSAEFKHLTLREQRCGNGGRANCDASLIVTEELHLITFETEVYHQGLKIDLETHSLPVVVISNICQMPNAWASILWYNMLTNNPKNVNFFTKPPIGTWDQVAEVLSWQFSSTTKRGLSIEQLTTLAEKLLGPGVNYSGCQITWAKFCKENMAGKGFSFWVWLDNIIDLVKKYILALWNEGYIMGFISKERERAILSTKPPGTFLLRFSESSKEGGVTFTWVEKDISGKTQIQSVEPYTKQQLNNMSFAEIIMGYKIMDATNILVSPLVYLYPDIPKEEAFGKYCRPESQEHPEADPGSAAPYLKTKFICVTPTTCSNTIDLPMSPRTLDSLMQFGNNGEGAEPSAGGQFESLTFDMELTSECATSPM

Structure (SMILES)	IC50 (DU-145) [µM]	IC50 (STAT3) [µM]	IC50 (LNCaP) [µM]	IC50 (U266) [µM]	IC50 (HEL92.1.7) [µM]	IC50 (MDA-MB-231) [µM]	IC50 (AGS) [µM]
CC(C)Oc1cc(OC(F)(F)F)cc(C(C)(C)c2cc(Cl)cc(NC(=O)c3cc4nc(NS(C)(=O)=O)ccc4s3)c2)c1 [Example 70, N-(3-chloro-5-(2-(3-isopropoxy-5-(trifluoromethoxy)phenyl)propan-2-yl)phenyl)-5-(methylsulfonamido)thieno[3,2-b]pyridine-2-carboxamide]	0.12	0.068	0.29	0.46	0.36	–	–
CC(C)Oc1cc(CN2CCN(C3COC3)CC2)cc(C(C)(C)c2cc(Cl)cc(NC(=O)c3cc4cc(NS(C)(=O)=O)ccc4s3)c2)c1 [Example 130, N-(3-chloro-5-(2-(3-isopropoxy-5-((4-(oxetan-3-yl)piperazin-1-yl)methyl)phenyl)propan-2-yl)phenyl)-5-(methylsulfonamido)benzo[b]thiophene-2-carboxamide]	0.17	0.308	0.76	0.74	> 1.1	–	–
CC(C)COc1cc(OC(F)(F)F)cc(C(C)(C)c2cc(Cl)cc(NC(=O)c3cc4cc(NS(C)(=O)=O)ccc4s3)c2)c1 [Example 72, N-(3-chloro-5-(2-(3-isobutoxy-5-(trifluoromethoxy)phenyl)propan-2-yl)phenyl)-5-(methylsulfonamido)benzo[b]thiophene-2-carboxamide]	0.006	0.021	0.034	0.1	0.087	–	–
CC(C)(c1cc(Cl)cc(NC(=O)c2cc3cc(NS(C)(=O)=O)ccc3s2)c1)c1cc(OCC#N)cc(OC(F)(F)F)c1 [Example 77, N-(3-chloro-5-(2-(3-(cyanomethoxy)-5-(trifluoromethoxy)phenyl)propan-2-yl)phenyl)-5-(methylsulfonamido)benzo[b]thiophene-2-carboxamide]	0.05	0.12	0.3	0.22	0.068	–	–
CS(=O)(=O)Nc1ccc2cc(C(=O)Nc3cccc(C(F)(F)c4cccc(C#N)c4)c3)[nH]c2c1 [Example 390, N-(3-((3-cyanophenyl)difluoromethyl)phenyl)-6-(methylsulfonamido)-1H-indole-2-carboxamide]	–	3.7	2.5	–	–	1.1	9.6
CS(=O)(=O)Nc1ccc2cc(C(=O)Nc3cc(OCC(F)F)cc(-c4ccc(F)cc4F)c3)[nH]c2c1 [Example 366, N-(5-(2,2-difluoroethoxy)-2′,4′-difluoro-[1,1′-biphenyl]-3-yl)-6-(methylsulfonamido)-1H-indole-2-carboxamide]	–	1.2	6.2	–	–	0.58	8.9
COc1cc(NC(=O)c2cc3ccc(N(C)S(C)(=O)=O)cc3n2C)cc(-c2ccc(F)cc2F)c1 [Example 348, N-(2′,4′-difluoro-5-methoxy-[1,1′-biphenyl]-3-yl)-1-methyl-6-(N-methylmethylsulfonamido)-1H-indole-2-carboxamide]	–	> 10	7.2	–	–	> 10	4.8
CS(=O)(=O)Nc1ccc2cc(C(=O)Nc3cccc(S(=O)(=O)c4cccc(OC(F)(F)F)c4)c3)[nH]c2c1 [Example 396]	–	2.5	8.9	–	–	1.2	11.8
CS(=O)(=O)Nc1ccc2cc(C(=O)Nc3cc(OCC(F)F)cc(C(F)(F)c4cccc(C#N)c4)c3)[nH]c2c1 [Example 391, N-(3-((3-cyanophenyl)difluoromethyl)-5-(2,2-difluoroethoxy)phenyl)-6-(methylsulfonamido)-1H-indole-2-carboxamide]	–	2.4	> 10	–	–	3.3	18.1
CS(=O)(=O)Nc1ccc2cc(C(=O)Nc3cc(C#N)cc(S(=O)(=O)c4cccc(OC(F)(F)F)c4)c3)[nH]c2c1 [Example 399, N-(3-cyano-5-((3-(trifluoromethoxy)phenyl)sulfonyl)phenyl)-6-(methylsulfonamido)-1H-indole-2-carboxamide]	–	2.8	> 10	–	–	3.4	13.2
CN(c1ccc2cc(C(=O)Nc3cc(Br)cc(-c4ccc(F)cc4F)c3)n(C)c2c1)S(C)(=O)=O [Example 341, N-(5-bromo-2′,4′-difluoro-[1,1′-biphenyl]-3-yl)-1-methyl-6-(N-methylmethylsulfonamido)-1H-indole-2-carboxamide]	–	3.3	6.2	–	–	7.5	5.3
CC(C)COc1cc(NC(=O)c2cc3ccc(NS(C)(=O)=O)cc3[nH]2)cc(S(=O)(=O)c2cccc(OC(F)(F)F)c2)c1 [Example 400, N-(3-isobutoxy-5-((3-(trifluoromethoxy)phenyl)sulfonyl)phenyl)-6-(methylsulfonamido)-1H-indole-2-carboxamide]	–	3.2	> 10	–	–	3.5	14.9

Continued, values first:

IC50 (DU-145) [µM]	IC50 (STAT3) [µM]	IC50 (LNCaP) [µM]	IC50 (U266) [µM]	IC50 (HEL92.1.7) [µM]	IC50 (MDA-MB-231) [µM]	IC50 (AGS) [µM]	Structure (SMILES)
0.006	0.01	0.033	0.058	0.056	–	–	CCCOc1cc(OC(F)(F)F)cc(C(C)(C)c2cc(Cl)cc(NC(=O)c3cc4cc(NS(C)(=O)=O)ccc4s3)c2)c1 [Example 73, N-(3-chloro-5-(2-(3-propoxy-5-(trifluoromethoxy)phenyl)propan-2-yl)phenyl)-5-(methylsulfonamido)benzo[b]thiophene-2-carboxamide]
–	2.7	9.8	–	–	1.7	11.5	CS(=O)(=O)Nc1ccc2cc(C(=O)Nc3cc(OCC#N)cc(-c4ccc(F)cc4F)c3)[nH]c2c1 [Example 368, N-(5-(cyanomethoxy)-2′,4′-difluoro-[1,1′-biphenyl]-3-yl)-6-(methylsulfonamido)-1H-indole-2-carboxamide]
–	3	5.8	–	–	2.8	8.7	COc1cc(NC(=O)c2cc3ccc(NS(C)(=O)=O)cc3[nH]2)cc(S(=O)(=O)c2cccc(OC(F)(F)F)c2)c1 [Example 397, N-(3-methoxy-5-((3-(trifluoromethoxy)phenyl)sulfonyl)phenyl)-6-(methylsulfonamido)-1H-indole-2-carboxamide]
–	3.3	3.9	–	–	0.72	5.7	CS(=O)(=O)Nc1ccc2cc(C(=O)Nc3cc(C#N)cc(-c4ccc(F)cc4F)c3)[nH]c2c1 [Example 301, N-(5-cyano-2′,4′-difluoro-[1,1′-biphenyl]-3-yl)-6-(methylsulfonamido)-1H-indole-2-carboxamide]
–	> 10	> 10	–	–	5	10.3	CS(=O)(=O)Nc1ccc2cc(C(=O)Nc3cc(OCC#N)cc(C(F)(F)c4cccc(C#N)c4)c3)[nH]c2c1 [Example 393, N-(3-(cyanomethoxy)-5-((3-cyanophenyl)difluoromethyl)phenyl)-6-(methylsulfonamido)-1H-indole-2-carboxamide]
–	1.6	2.6	–	–	1.2	5.2	CS(=O)(=O)Nc1ccc2cc(C(=O)Nc3cc(C(F)(F)F)cc(S(=O)(=O)c4cccc(OC(F)(F)F)c4)c3)[nH]c2c1 [Example 398, 6-(methylsulfonamido)-N-(3-((3-(trifluoromethoxy)phenyl)sulfonyl)-5-(trifluoromethyl)phenyl)-1H-indole-2-carboxamide]
